Reference: ChEMBL document CHEMBL3991601, “The target landscape of clinical kinase drugs” (Science, 2017)
Activity calls are given as the source filed them. Cut-off read from the data, not from the text of the source, for most assays here: actives have a measured Kd and inactives only a lower limit.

What was measured:
[1] = biological target: T1, Interleukin-1 receptor-associated kinase 3 (Homo sapiens, UniProt Q9Y616)
T1 sequence (Q9Y616 whole entry): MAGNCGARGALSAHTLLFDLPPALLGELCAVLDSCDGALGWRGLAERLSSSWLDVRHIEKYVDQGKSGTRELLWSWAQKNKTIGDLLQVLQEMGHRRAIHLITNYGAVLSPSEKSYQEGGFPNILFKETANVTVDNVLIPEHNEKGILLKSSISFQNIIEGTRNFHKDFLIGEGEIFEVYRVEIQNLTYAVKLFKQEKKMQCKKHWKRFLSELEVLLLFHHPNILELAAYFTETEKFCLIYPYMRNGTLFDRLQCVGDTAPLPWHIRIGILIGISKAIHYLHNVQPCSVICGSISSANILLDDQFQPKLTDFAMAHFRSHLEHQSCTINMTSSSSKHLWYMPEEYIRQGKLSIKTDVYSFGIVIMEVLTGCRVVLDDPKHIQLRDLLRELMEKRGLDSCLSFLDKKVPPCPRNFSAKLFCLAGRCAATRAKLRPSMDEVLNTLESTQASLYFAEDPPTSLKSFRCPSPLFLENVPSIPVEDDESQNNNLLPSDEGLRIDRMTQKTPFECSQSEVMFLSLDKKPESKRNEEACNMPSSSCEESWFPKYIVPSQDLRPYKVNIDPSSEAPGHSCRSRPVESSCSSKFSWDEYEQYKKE

[2] = biological target: T2, Serine/threonine-protein kinase TAO1 (Homo sapiens, UniProt Q7L7X3)
T2 sequence (Q7L7X3 whole entry): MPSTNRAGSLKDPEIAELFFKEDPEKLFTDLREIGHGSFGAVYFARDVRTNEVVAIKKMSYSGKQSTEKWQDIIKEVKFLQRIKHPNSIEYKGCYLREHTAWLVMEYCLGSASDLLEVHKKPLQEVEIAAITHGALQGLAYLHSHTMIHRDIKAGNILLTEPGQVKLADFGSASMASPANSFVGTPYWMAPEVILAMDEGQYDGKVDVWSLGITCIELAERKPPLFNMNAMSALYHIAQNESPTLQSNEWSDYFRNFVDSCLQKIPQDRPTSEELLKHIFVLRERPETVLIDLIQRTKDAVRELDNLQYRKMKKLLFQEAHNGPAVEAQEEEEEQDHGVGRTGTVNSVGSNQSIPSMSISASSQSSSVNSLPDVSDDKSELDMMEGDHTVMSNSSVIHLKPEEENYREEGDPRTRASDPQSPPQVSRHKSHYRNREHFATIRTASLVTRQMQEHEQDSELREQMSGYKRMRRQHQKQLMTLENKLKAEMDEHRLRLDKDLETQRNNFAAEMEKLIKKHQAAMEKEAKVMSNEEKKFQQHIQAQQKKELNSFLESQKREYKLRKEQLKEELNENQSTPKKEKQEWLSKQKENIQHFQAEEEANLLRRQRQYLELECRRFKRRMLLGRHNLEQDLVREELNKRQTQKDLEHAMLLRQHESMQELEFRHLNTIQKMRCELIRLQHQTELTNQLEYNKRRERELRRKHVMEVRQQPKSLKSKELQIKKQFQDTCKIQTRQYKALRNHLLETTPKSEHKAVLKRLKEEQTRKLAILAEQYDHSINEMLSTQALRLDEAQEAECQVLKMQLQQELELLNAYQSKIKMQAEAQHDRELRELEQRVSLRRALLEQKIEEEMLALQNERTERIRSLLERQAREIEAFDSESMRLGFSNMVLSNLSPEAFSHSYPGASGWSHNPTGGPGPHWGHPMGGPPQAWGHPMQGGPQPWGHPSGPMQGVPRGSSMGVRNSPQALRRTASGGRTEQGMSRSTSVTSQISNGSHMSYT

[3] = biological target: DNA topoisomerase 2-alpha (Homo sapiens, UniProt P11388)
[4] = biological target: Dual specificity tyrosine-phosphorylation-regulated kinase 1A (Homo sapiens, UniProt Q13627)
[5] = biological target: T3, Serine/threonine-protein kinase ULK1 (Homo sapiens, UniProt O75385)
T3 sequence (O75385 whole entry): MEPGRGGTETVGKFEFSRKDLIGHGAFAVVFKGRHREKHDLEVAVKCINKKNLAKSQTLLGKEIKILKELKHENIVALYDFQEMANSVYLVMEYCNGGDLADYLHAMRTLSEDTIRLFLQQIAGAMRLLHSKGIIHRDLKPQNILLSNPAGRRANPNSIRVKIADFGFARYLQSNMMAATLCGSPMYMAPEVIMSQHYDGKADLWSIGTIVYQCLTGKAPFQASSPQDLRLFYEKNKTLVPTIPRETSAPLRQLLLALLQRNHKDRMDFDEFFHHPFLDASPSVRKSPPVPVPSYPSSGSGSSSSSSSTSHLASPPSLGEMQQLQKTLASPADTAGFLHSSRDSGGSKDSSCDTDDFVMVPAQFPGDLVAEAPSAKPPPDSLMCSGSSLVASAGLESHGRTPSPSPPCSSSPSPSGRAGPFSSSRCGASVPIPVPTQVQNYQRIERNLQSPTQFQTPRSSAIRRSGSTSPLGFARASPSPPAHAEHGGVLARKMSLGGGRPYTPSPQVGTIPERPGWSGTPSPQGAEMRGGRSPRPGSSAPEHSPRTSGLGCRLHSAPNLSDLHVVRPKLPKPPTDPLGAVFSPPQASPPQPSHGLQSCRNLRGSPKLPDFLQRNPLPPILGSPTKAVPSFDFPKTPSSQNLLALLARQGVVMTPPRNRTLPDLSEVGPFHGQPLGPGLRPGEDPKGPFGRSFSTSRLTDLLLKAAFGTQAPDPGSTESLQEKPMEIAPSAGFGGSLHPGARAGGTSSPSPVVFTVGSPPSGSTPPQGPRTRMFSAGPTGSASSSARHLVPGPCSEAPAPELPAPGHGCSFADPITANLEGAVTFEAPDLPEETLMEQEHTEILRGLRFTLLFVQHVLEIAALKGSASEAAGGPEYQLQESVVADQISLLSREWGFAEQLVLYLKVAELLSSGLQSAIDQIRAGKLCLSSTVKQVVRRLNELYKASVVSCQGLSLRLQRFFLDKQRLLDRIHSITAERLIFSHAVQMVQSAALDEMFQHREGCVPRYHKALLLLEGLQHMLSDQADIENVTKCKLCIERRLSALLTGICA

[6] = biological target: G protein-coupled receptor kinase 6 (Homo sapiens, UniProt P43250)
[7] = biological target: Tyrosine-protein kinase BTK (Homo sapiens, UniProt Q06187)
[8] = biological target: Dual specificity protein kinase CLK2 (Homo sapiens, UniProt P49760)
Note: in the data inactive means no Kd found up to 30 µM.

Tyrosine-protein kinase BTK, sequence (Q06187 whole entry): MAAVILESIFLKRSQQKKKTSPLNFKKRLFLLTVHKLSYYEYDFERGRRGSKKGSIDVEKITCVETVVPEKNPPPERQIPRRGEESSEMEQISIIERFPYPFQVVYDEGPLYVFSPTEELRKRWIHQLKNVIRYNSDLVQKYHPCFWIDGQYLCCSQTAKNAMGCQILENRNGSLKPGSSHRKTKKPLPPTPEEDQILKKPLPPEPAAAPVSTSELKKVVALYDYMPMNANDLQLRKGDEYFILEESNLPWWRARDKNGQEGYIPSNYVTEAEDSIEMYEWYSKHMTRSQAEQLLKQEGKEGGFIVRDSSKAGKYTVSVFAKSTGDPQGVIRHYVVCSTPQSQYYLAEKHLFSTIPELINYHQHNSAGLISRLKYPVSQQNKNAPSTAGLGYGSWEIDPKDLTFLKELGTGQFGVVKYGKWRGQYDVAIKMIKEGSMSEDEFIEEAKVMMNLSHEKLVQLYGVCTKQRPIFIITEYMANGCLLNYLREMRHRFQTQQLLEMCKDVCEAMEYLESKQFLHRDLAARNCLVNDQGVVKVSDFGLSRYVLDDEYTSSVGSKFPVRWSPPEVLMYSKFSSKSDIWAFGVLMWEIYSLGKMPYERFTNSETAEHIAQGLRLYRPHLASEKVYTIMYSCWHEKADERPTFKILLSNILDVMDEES
Dual specificity protein kinase CLK2, sequence (P49760 whole entry): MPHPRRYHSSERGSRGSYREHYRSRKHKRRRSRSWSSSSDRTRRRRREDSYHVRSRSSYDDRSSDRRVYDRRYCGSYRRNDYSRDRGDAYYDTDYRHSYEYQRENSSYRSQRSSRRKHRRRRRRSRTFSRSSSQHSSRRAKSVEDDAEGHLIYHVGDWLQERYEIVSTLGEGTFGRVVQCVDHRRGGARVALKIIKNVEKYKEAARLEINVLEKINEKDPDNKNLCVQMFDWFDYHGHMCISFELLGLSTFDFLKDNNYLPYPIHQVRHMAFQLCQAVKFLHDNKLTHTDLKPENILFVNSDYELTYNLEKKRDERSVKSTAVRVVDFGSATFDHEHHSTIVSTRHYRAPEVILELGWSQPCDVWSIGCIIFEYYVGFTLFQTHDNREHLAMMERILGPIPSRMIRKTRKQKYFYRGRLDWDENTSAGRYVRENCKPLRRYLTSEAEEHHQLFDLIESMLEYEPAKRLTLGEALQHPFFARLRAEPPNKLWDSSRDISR
DNA topoisomerase 2-alpha, sequence (P11388 whole entry): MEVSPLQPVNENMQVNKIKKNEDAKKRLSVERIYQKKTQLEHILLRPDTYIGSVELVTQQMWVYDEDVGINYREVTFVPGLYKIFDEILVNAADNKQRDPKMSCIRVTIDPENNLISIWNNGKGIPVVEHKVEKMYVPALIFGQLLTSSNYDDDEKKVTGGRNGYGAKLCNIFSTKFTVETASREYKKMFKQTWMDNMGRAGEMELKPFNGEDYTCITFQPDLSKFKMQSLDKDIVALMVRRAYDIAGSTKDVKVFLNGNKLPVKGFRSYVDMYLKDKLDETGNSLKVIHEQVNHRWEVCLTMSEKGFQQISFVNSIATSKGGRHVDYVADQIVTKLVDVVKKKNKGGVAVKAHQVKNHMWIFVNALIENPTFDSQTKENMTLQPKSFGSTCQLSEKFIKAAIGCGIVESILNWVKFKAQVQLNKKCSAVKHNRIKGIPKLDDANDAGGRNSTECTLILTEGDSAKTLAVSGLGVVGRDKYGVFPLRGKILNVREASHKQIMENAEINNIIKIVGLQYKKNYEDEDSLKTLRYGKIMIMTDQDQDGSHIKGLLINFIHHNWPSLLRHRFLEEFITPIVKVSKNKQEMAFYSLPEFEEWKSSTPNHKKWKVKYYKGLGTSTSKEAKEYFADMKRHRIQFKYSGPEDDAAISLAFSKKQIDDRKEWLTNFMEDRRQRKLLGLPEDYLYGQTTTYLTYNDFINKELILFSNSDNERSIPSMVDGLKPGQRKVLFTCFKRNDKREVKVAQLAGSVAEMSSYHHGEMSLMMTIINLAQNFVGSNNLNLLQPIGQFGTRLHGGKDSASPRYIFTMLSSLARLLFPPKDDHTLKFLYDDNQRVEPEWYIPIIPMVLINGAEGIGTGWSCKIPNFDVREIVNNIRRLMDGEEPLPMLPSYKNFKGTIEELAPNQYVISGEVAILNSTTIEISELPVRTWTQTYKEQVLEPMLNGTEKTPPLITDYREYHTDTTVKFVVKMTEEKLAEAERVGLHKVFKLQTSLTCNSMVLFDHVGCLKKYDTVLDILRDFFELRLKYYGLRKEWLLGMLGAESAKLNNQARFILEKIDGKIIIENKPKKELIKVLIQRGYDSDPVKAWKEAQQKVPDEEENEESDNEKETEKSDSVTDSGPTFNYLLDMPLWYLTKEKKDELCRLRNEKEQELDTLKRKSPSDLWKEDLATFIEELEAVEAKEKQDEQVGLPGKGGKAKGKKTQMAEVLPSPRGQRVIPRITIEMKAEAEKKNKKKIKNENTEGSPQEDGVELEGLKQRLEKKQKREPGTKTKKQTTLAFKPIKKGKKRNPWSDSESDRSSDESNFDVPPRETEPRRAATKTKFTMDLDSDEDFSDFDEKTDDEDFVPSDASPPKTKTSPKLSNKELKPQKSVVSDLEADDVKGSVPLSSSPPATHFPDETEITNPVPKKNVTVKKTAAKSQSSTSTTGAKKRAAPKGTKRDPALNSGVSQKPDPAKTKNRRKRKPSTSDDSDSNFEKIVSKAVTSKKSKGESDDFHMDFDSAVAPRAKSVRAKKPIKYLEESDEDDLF
G protein-coupled receptor kinase 6, sequence (P43250 whole entry): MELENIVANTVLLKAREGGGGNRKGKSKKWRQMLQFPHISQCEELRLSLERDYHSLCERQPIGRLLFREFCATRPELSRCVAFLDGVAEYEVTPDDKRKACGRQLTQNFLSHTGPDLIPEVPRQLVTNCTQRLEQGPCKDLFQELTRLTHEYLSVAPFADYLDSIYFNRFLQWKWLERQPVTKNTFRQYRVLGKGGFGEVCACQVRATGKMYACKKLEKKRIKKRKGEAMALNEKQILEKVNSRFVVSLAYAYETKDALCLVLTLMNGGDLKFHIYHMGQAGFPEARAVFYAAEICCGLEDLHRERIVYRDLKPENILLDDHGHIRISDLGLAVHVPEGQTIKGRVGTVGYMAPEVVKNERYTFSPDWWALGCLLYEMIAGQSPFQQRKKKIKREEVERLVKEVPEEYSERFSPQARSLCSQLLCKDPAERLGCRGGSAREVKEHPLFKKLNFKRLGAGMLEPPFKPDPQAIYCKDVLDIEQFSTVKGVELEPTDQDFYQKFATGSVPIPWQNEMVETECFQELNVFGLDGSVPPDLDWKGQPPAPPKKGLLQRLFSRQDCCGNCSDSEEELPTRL

| Kd [1] | Kd [2] | Kd [3] | Kd [4] | Kd [5] | Kd [6] | Kd [7] | Kd [8] | Compound |
| --- | --- | --- | --- | --- | --- | --- | --- | --- |
| > 30 µM (inactive) | > 30 µM (inactive) |  | > 30 µM (inactive) | > 30 µM (inactive) | > 30 µM (inactive) | > 30 µM (inactive) | > 30 µM (inactive) | CCn1c(C(=O)N(C2CC2)C2CC2)cc2c3c(ncn3C)c(Nc3cc(C)n(C)n3)nc21 [BMS-911543] |
|  |  | > 30 µM (inactive) |  |  | > 30 µM (inactive) |  |  | C[C@@H](Oc1cc(-n2cnc3ccc(CN4CCN(C)CC4)cc32)sc1C(N)=O)c1ccccc1C(F)(F)F [GSK-461364] |
| > 30 µM (inactive) |  | > 30 µM (inactive) | > 30 µM (inactive) | > 30 µM (inactive) | > 30 µM (inactive) |  | > 30 µM (inactive) | CCn1cc(-c2ccnc3[nH]c(-c4cccc(CN(C)C)c4)cc23)c(-c2ccc(NC(=O)N(C)C)cc2)n1 [GSK-1070916] |
| > 30 µM (inactive) | > 30 µM (inactive) |  | > 30 µM (inactive) | > 30 µM (inactive) | > 30 µM (inactive) | > 30 µM (inactive) | > 30 µM (inactive) | Cn1cc(-c2cnc3ccc4ccc(CS(=O)(=O)NCc5ccccn5)cc4c(=O)c3c2)cn1 [MK-8033] |
| > 30 µM (inactive) |  | > 30 µM (inactive) |  |  | > 30 µM (inactive) |  |  | NC(=O)c1c(OCc2c(F)cc(Br)cc2F)nsc1NC(=O)NCCCCN1CCCC1 [OSI-632] |
| > 30 µM (inactive) |  |  |  | 0.028 µM (active) | > 30 µM (inactive) |  |  | CC(=O)NCC(=O)N1[C@@H]2CC[C@H]1c1ccc(Nc3ncc(C(F)(F)F)c(NC4CCC4)n3)cc12 [PF-03814735] |
|  |  | > 30 µM (inactive) |  |  | > 30 µM (inactive) |  |  | O=C(NOCCO)c1cc(CN2OCCCC2=O)c(F)c(F)c1Nc1ccc(I)cc1F [RO-4987655] |
| > 30 µM (inactive) | > 30 µM (inactive) |  | > 30 µM (inactive) | > 30 µM (inactive) | > 30 µM (inactive) | > 30 µM (inactive) | > 30 µM (inactive) | Cn1cc(-c2cnn3c(N)c(Br)c([C@@H]4CCCNC4)nc23)cn1 [SCH-900776] |
| 0.027 µM (active) | > 30 µM (inactive) |  | > 30 µM (inactive) | > 30 µM (inactive) | 1.19 µM | 0.328 µM (active) |  | CCS(=O)(=O)c1cccc(-c2cc(C(=O)NC3CCN(C)CC3)c(C)c3[nH]c4ncc(C)cc4c23)c1 [TAK-901] |
| > 30 µM (inactive) | 2.03 µM (active) | > 30 µM (inactive) | > 30 µM (inactive) | > 30 µM (inactive) | > 30 µM (inactive) | > 30 µM (inactive) |  | C[C@@H](N)c1ccc(C(=O)Nc2ccnc3[nH]ccc23)cc1 [Y-39983] |

More lines, now with the values behind:

| Compound | Kd [1] | Kd [2] | Kd [3] | Kd [4] | Kd [5] | Kd [6] | Kd [7] | Kd [8] |
| --- | --- | --- | --- | --- | --- | --- | --- | --- |
| C[C@@H](Oc1cc(C(=O)Nc2ccc(C(=O)N3CCN(C)CC3)cc2)nnc1N)c1c(Cl)ccc(F)c1Cl | > 30 µM (inactive) | > 30 µM (inactive) | > 30 µM (inactive) | > 30 µM (inactive) | > 30 µM (inactive) | > 30 µM (inactive) | > 30 µM (inactive) |  |
| CCNC(=O)C#Cc1ccc2c(c1)NC(=O)/C2=C(\Nc1ccc(CN(C)C)cc1)c1ccccc1 | > 30 µM (inactive) | > 30 µM (inactive) | > 30 µM (inactive) | > 30 µM (inactive) | > 30 µM (inactive) | > 30 µM (inactive) | 0.588 µM (active) |  |
| COCc1c(-c2ccc(NC(=O)Nc3cc(C(F)(F)F)ccc3F)c(F)c2)c2c(N)ncnn2c1CN1CCOCC1 | > 30 µM (inactive) | > 30 µM (inactive) | > 30 µM (inactive) | > 30 µM (inactive) | > 30 µM (inactive) | > 30 µM (inactive) | > 30 µM (inactive) | > 30 µM (inactive) |
| COc1cc(Nc2ncc3c(n2)-c2ccc(Cl)cc2C(c2c(F)cccc2OC)=NC3)ccc1C(=O)O [ALISERTIB] | > 30 µM (inactive) |  | > 30 µM (inactive) |  | > 30 µM (inactive) | > 30 µM (inactive) |  |  |
| CNC(=O)c1ccccc1Sc1ccc2c(/C=C/c3ccccn3)n[nH]c2c1 [AXITINIB] |  |  | > 30 µM (inactive) |  |  | > 30 µM (inactive) |  |  |
| COc1c(OCCCN2CCOCC2)ccc2c1N=C(NC(=O)c1cnc(N)nc1)N1CCN=C21 [COPANLISIB] | > 30 µM (inactive) | > 30 µM (inactive) |  | > 30 µM (inactive) | > 30 µM (inactive) | > 30 µM (inactive) | > 30 µM (inactive) | > 30 µM (inactive) |
| CNC(=O)c1nn(C)c2c1C(C)(C)Cc1cnc(Nc3ccc(N4CCN(C)CC4)cc3)nc1-2 [MILCICLIB] | 0.291 µM (active) |  |  | 0.105 µM (active) | 1.75 µM (active) | > 30 µM (inactive) | > 30 µM (inactive) | > 30 µM (inactive) |
| CNC(=O)c1cc(Oc2ccc(NC(=O)Nc3cc(C(C)(C)C)nn3-c3ccc4ncccc4c3)c(F)c2)ccn1 [REBASTINIB] | > 30 µM (inactive) | > 30 µM (inactive) | > 30 µM (inactive) | > 30 µM (inactive) | > 30 µM (inactive) | > 30 µM (inactive) | 1.22 µM (active) |  |
| COc1cc2c(Nc3ccc(Cl)c(Cl)c3F)ncnc2cc1OC[C@@H]1C[C@@H]2CN(C)C[C@@H]2C1 [TESEVATINIB] | > 30 µM (inactive) | > 30 µM (inactive) | > 30 µM (inactive) | > 30 µM (inactive) | > 30 µM (inactive) | > 30 µM (inactive) | 1.62 µM (active) |  |
| Cc1cc(Nc2ncnc3ccc(NC4=NC(C)(C)CO4)cc23)ccc1Oc1ccn2ncnc2c1 [TUCATINIB] | > 30 µM (inactive) | > 30 µM (inactive) | > 30 µM (inactive) | > 30 µM (inactive) | > 30 µM (inactive) | > 30 µM (inactive) | > 30 µM (inactive) |  |
| CN1C/C=C/CCOc2cccc(c2)-c2ccnc(n2)Nc2cccc(c2)C1 [ZOTIRACICLIB] | 0.286 µM (active) | 2.14 µM | > 30 µM (inactive) | 5.62 µM | > 30 µM (inactive) | > 30 µM (inactive) | > 30 µM (inactive) |  |
